{"source": "paper PMC11528066", "about": "“Noninvasive Monitoring of Programmed Death-Ligand 2 Expression with Positron Emission Tomography using ^68Ga-labeled Peptide Antagonist in Preclinical and Exploratory Human Studies” (Research, 2024)", "key": {"[1]": {"test": "[^18F]F-FDG PET/CT imaging in cancer patients", "type": "in vivo, human", "description": "The program content was explained to all healthy volunteers and cancer patients, and written informed consent was obtained. Whole-body dynamic imaging was conducted for 60 min using a PET/CT 690 Elite scanner (GE Discovery) immediately after intravenous injection of [^68Ga]Ga-HN11-1 (3.1 to 4.9 MBq/kg). A static body scan was performed 15 to 45 min after injection. All cancer patients underwent [^18F]F-FDG and [^68Ga]Ga-HN11-1 PET/CT imaging within 5 d. Two nuclear medicine physicians reconstructed and reviewed the images on GE aw 4.6 workstations and reached a consensus. They delineated the ROIs and measured the values of maximum standard uptake and average standard uptake (SUVmax and SUVmean). The biological distribution of [^68Ga]Ga-HN11-1 in healthy volunteers was determined by SUVmax and SUVmean. The OLINDA/EXM software (version 1.0, Hermes Medical Solutions AB) was used to estimate the human radiation dose based on the SUVmean of each organ."}, "[2]": {"conditions": "Adult, PET/CT; cited from earlier work", "from_the_text": "The kidney received the highest doses (9.83 × 10^−2 ± 2.10 × 10^−2 mSv/MBq)."}, "[3]": {"test": "Partition coefficient (log P), 1-octanol/PBS", "type": "physicochemical", "conditions": "shake-flask 3 mL 1-octanol / 3 mL PBS pH 7.4, vortex 10 min, centrifugation 10,000 rpm 10 min, γ-counter, mean ± SD, n = 5", "description": "The partition coefficients were assessed using the method described previously. [^68Ga]Ga-HN11-1 and [^68Ga]Ga-HN11-2 was respectively introduced into a mixture comprising 3 mL of 1-octanol and 3 mL of phosphate-buffered saline (PBS) with a pH of 7.4. Following vortexing for 10 minutes and subsequent centrifugation at 10,000 rpm for 10 minutes, samples were taken from both layers and counted using a γ-counter. The log P was determined using the formula: log P = log([M]oct/[M]aq). All measurements were conducted using 5 independent samples and are presented as mean ± standard deviation (SD)."}, "[4]": {"test": "In vitro stability in saline (radio-HPLC)", "type": "physicochemical", "conditions": "room temperature, over 4 h (0.5, 1, 2, 4 h), 3.74 MBq", "description": "(§1) The in vitro stability of [^68Ga]Ga-HN11-1 and [^68Ga]Ga-HN11-2 (3.74 MBq) in saline and serum was tested by radio-HPLC analysis of its radiochemical purity after incubation at room temperature for 0.5 , 1 , 2 and 4 h."}, "[5]": {"test": "In vitro stability in serum (radio-HPLC)", "type": "in vitro ADME", "conditions": "room temperature, over 4 h (0.5, 1, 2, 4 h), 3.74 MBq, read-out: in vitro stability in serum (radiochemical purity)", "description": "as §1"}, "A549-PD-L2 cell lines": {"tested_on": "A549-PD-L2 cell lines", "test": "Cell uptake assay", "type": "cell-based", "conditions": "A549-PD-L2 cells, n = 5; for cell uptake rate: mean ± SD", "description": "Cell uptake assays were conducted to measure the uptake of [^68Ga]Ga-HN11-1 and [^68Ga]Ga-HN11-2 in A549 and A459-PD-L2 cell lines following incubation periods of 15, 30, 60, and 90 min. Blocking studies were performed by coincubating cells with an excess of precursor (HN11-1 / HN11-2), and then the cell uptakes of [^68Ga]Ga-HN11-1 and [^68Ga]Ga-HN11-2 were performed in A459-PD-L2 cell lines after 60 min of incubation. The experiment details are provided in the SI.\nAll tumor cells (1 × 10^6 per well) were seeded in two 24 - well plates, incubated for 24 h and then added with […] of [^68Ga]Ga-HN11-1 or [^68Ga]Ga-HN11-2 per well. After 15, 30, 60 and 90 min of uptake, the cells were separated from the medium, washed with 500 μL of cold PBS for three times and dissolved with 1 M NaOH. At different time points, these cells were collected and counted by using a γ-counter (WIZARD 2480, Pekin Elmer). For in vitro blocking experiments, cells were co-incubated with 10 μg of cold HN11-1 or HN11-2 precursor. After incubation, the cells were washed, collected and measured with a γ-counter, either. The IC50 values of [^68Ga]Ga-HN11-1 or [^68Ga]Ga-HN11-2 were determined using GraphPad Prism 8.0.2 software, respectively."}, "[6]": {"tested_on": "A549-PD-L2 tumor xenograft models", "test": "Dynamic micro-PET imaging in A549-PD-L2 xenografts", "type": "in vivo, BALB/C nude mice", "conditions": "n = 3", "description": "Micro-PET imaging was conducted using an Inveon PET scanner (Siemens, Germany). Dynamic PET examine were acquired over the first 60 min following the simultaneous injection of 7.4 to 9.25 MBq (200 to 250 μCi) of [^68Ga]Ga-HN11-1 and [^68Ga]Ga-HN11-2. After reconstructing the images and delineating the regions of interest (ROIs), time-radioactivity curves were plotted to obtain the Tumor/Muscle (T/M) ratios. %ID/g represents the percentage of the injected dose of the radiotracer that accumulates in a specific tissue per gram of tissue weight. For the biodistribution study, the xenograft models received an intravenous injection of 3.7 to 5.5 MBq (100 to 150 μCi) of [^68Ga]Ga-HN11-1. After the designated period (10, 30, 60, and 90 min), the mice were euthanized, and important tissues and organs were dissected and collected. The samples were counted using the γ-counter for determining the %ID/g, presented as mean ± standard deviation (SD).\nA549 cell lines were provided by the China Center for Type Culture Collection (CCTCC) and cultured in RPMI-1640 medium supplemented with 10 % fetal bovine serum and 100 U/mL penicillin-streptomycin. The lentivirus system was implemented to introduce PD-L2 (PDCD1LG2) over-expressed cDNA into the A549 cells. The viral vectors were produced in 293T cells and co-transfected with the psAX2, pMD2G and PD-L2 plasmids. A549 cells transduced with the vectors were selectively grown in 1.6 μg/mL puromycin. Transfection efficiency was identified by WB and real-time quantitative PCR. All the cells were cultured in an incubator at 37° C with 5 % CO2 atmosphere. A549 and A549-PD-L2 cells (5 × 10^6, 200 μL)were subcutaneously implanted into the right shoulder of BALB/C nude mice (male, 4-6 weeks), respectively. When the tumors reached to 5 - 8 mm in diameter, the mice were subjected to in vivo and ex vivo studies. All the mice were purchased from the Laboratory Animal Center of Central South University."}, "[7]": {"tested_on": "A549-PD-L2 xenograft models", "test": "Static PET/CT imaging with blocking", "type": "in vivo, BALB/C nude mice", "conditions": "60 min, pretreatment i.v. with excess HN11-1 / HN11-2 (10 mg/kg), n = 3", "description": "(§2) The static PET/CT imaging in A549 and A549-PD-L2 xenograft models after injection of 5.55 to 7.4 MBq (150 to 200 μCi) of [^68Ga]Ga-HN11-1 or [^68Ga]Ga-HN11-2 were acquired at 60 min. In the [^68Ga]Ga-HN11-1 + block or [^68Ga]Ga-HN11-2 + block groups, the xenograft models underwent pretreatment via intravenous injection of HN11-1 or HN-2 (10 mg/kg) before PET/CT imaging. Then, ROIs were delineated for each group. After imaging, tumor tissues from both the A549 and A459-PD-L2 xenograft tumors were extracted, and the PD-L2 expression was tested by IHC. For the pharmacokinetics study, healthy BALB/C mouse received an intravenous injection of 5.55 MBq (150 μCi) of [^68Ga]Ga-HN11-1 and [^68Ga]Ga-HN11-2. Measure the activity of blood samples (%ID/g, mean ± SD) at the corresponding time points, and the time-activity curve was plotted. Subsequently, pharmacokinetic parameters were tested using the noncompartmental model in Phoenix WinNonlin 8.1 software (Certara, USA)."}, "[8]": {"test": "Pharmacokinetics in blood", "type": "in vivo", "conditions": "healthy BALB/C mouse, i.v. 5.55 MBq, noncompartmental model, Phoenix WinNonlin 8.1", "description": "as §2"}, "patients with NSCLC": {"tested_on": "patients with NSCLC", "test": "Clinical response to anti-PD-1 therapy in NSCLC patients", "type": "in vivo, human", "from_the_text": "We evaluated the clinical relevance between the expression of PD-L2 in tumor tissues and anti-PD-1 immunotherapy (pembrolizumab) in 49 patients with NSCLC, as assessed by PD-L2 IHC score data from these patients. The median age was 60 years (range, 41 to 86 y), male (81.6%). About 57.1% of the patients had distant metastasis (M1 stage), and 42.9% of the patients had received ≥2 other treatment before anti-PD-1 therapy (Table). […] patients were classified as PD-L1-positive expression, […] as PD-L2-positive expression, 21 (42.9%) as PD-L1 negative, and 27 (55.1%) as PD-L2 negative (Fig. 1A). […] (Fig. 1A). […] (Fig. 1A). In the 49 patients, PD-L2-positive was identified as a statistically significant predictor of better PFS (P < 0.05) (Fig. 1B), but it was not a statistically significant predictor of relapse-free survival (Fig. 1C)."}}, "note": "Peptide text beside a SMILES is read from it. * marks the point of attachment. NOTA = O=C(O)CN1CCN(CC(=O)O)CCN(CC(=O)*)CC1; AEEEA = NCCOCCOCCOCC(=O)O"}
{"molecule": "OC[C@H]1O[C@@H](O)[C@H]([18F])[C@@H](O)[C@@H]1O", "note": "[[^18F]F-FDG]", "values": [{"measurement": "FDG SUVmax", "setting": "[1]; patient 1, NSCLC, lung", "result": 15.5}, {"measurement": "FDG SUVmax", "setting": "[1]; patient 2, NSCLC, lung", "result": 25.9}, {"measurement": "FDG SUVmax", "setting": "[1]; patient 3, rHNSCC, buccal", "result": 13.7}, {"measurement": "FDG SUVmax", "setting": "[1]; patient 4, rHNSCC, buccal", "result": 4.0}, {"measurement": "FDG SUVmax", "setting": "[1]; patient 5, mHNSCC, tongue", "result": 4.0}, {"measurement": "FDG SUVmax", "setting": "[1]; patient 6, mHNSCC, laryngeal", "result": 3.7}, {"measurement": "effective dose", "setting": "[2]", "result": "1.9 × 10^−2 mSv/MBq"}]}
{"molecule": "CC[C@H](C)[C@H](NC(=O)[C@H](CCCNC(=N)N)NC(=O)[C@H](C)NC(=O)[C@H](CCCCN)NC(=O)[C@@H](NC(=O)[C@H](CCCNC(=N)N)NC(=O)[C@H](CCCNC(=N)N)NC(=O)[C@@H](NC(=O)[C@H](Cc1c[nH]cn1)NC(=O)COCCOCCOCCNC(=O)CN1CCN(CC(=O)O)CCN(CC(=O)O)CC1)C(C)C)[C@@H](C)O)C(=O)N[C@@H](CCCNC(=N)N)C(=O)N[C@@H](CC(N)=O)C(=O)O", "note": "[[^68Ga]Ga-HN11-2, metal not drawn] ({NOTA-AEEEA}-HVRRTKARIRN-OH)", "values": [{"measurement": "logD", "setting": "[3]", "result": "-0.27 ± 0.0018"}, {"measurement": "in vitro stability in saline (radiochemical purity)", "setting": "[4]", "result": "> 95", "unit": "%"}, {"measurement": "remaining at 4 h", "setting": "[5]", "result": "> 95", "unit": "%"}, {"measurement": "cell uptake rate", "setting": "A549-PD-L2 cell lines; 30 min incubation, γ-counter", "result": "1.55 ± 0.08", "unit": "%"}, {"measurement": "cell uptake, block group", "setting": "A549-PD-L2 cell lines; 60 min, with excess (10 μg) of cold HN11-1 / HN11-2 precursor", "result": "0.61 ± 0.03", "unit": "%"}, {"measurement": "cell uptake rate", "setting": "A549-PD-L2 cell lines; 60 min incubation", "result": "2.47 ± 0.13", "unit": "%"}, {"measurement": "tumor uptake", "setting": "[6]; 10 min after injection", "result": "1.71 ± 0.14", "unit": "%ID/g"}, {"measurement": "tumor uptake", "setting": "[6]; 20 min after injection", "result": "2.17 ± 0.12", "unit": "%ID/g"}, {"measurement": "tumor uptake", "setting": "[6]; 30 min after injection", "result": "2.29 ± 0.17", "unit": "%ID/g"}, {"measurement": "tumor uptake", "setting": "[6]; 40 min after injection", "result": "2.10 ± 0.03", "unit": "%ID/g"}, {"measurement": "tumor uptake", "setting": "[6]; 50 min after injection", "result": "1.97 ± 0.07", "unit": "%ID/g"}, {"measurement": "tumor uptake", "setting": "[6]; 60 min after injection", "result": "1.82 ± 0.06", "unit": "%ID/g"}, {"measurement": "tumor uptake after blocking", "setting": "[7]", "result": "0.82 ± 0.04", "unit": "%ID/g"}, {"measurement": "half-life in blood", "setting": "[8]", "result": 22.66, "unit": "min"}]}
{"molecule": "pembrolizumab: anti-PD-1 immunotherapy", "values": [{"measurement": "response rate", "setting": "patients with NSCLC; PD-L1-positive alone, 95% CI 63.4 to 93.8", "result": 78.6, "unit": "%"}, {"measurement": "objective response rate", "setting": "patients with NSCLC; PD-L1-positive but PD-L2-negative, 95% CI 56.3 to 96.6", "result": 76.5, "unit": "%"}, {"measurement": "objective response rate", "setting": "patients with NSCLC; PD-L1-positive while PD-L2 unknown, 95% CI 63.4 to 93.8", "result": 78.6, "unit": "%"}, {"measurement": "response rate", "setting": "patients with NSCLC; PD-L2-positive alone, 95% CI 59.8 to 94.8", "result": 77.3, "unit": "%"}, {"measurement": "objective response rate", "setting": "patients with NSCLC; both PD-L1- and PD-L2-positive, 95% CI 59.0 to 100.0", "result": 81.8, "unit": "%"}, {"measurement": "response rate", "setting": "patients with NSCLC; both PD-L1 and PD-L2 negative group, 95% CI 29.6 to 90.4", "result": 60.0, "unit": "%"}]}
